In US12398154B2, “Azaquinazoline pan-KRas inhibitors” (Mirati Therapeutics, Inc., priority 2020, dated 2025):

Assays:
KRas G12A = KRas G12A (Homo sapiens, UniProt P01116, G12A); assay: biochemical;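 also: binding to KRas measured by TR-FRET displacement after one hour at room temperature, IC50 from a four-parameter fit of percent-of-control values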
Protocol: (§1) The ability of a compound to bind to KRas was measured using a TR-FRET displacement assay. […] After a 60-minute incubation at room temperature, the reaction was measured using a BMG LABTECH CLARIO star Plus via TR-FRET. […] The POC values were fit to a 4-parameter IC50 equation and the IC50 value reported.

KRas G12R = KRas G12R (Homo sapiens, UniProt P01116, G12R); assay: biochemical;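 also: TR-FRET displacement assay of compound binding to KRas, read after one hour at room temperature, potency from a four-parameter fit of percent-of-control values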
Sequence of KRas G12R (P01116 1-169 isoform P01116-2 G12R): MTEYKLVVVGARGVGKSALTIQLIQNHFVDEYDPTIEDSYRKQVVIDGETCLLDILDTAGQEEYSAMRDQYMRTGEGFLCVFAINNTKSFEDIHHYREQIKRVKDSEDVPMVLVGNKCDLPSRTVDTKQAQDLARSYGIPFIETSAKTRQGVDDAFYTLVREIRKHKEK
Protocol: as §1

KRas G12V = KRas G12V (Homo sapiens, UniProt P01116, G12V); assay: biochemical;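 also: KRas binding measured by TR-FRET displacement at room temperature, IC50 fitted from percent of control values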
Sequence of KRas G12V (P01116 1-169 isoform P01116-2 G12V): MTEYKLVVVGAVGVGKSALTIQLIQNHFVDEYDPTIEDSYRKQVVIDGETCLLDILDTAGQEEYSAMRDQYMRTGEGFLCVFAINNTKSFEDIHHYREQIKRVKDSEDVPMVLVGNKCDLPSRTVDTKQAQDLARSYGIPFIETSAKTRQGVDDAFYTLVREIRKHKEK
Protocol: as §1

KRas Q61H = target: T1, KRas Q61H (Homo sapiens, UniProt P01116, Q61H); assay: KRas binding assay (TR-FRET displacement);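 also: TR-FRET signal read after one hour at room temperature, IC50 derived by four-parameter fitting of percent-of-control values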
T1 construct: Biotinylated KRas (corresponding to amino acids 1-169, produced at Accelegan Inc.); biotin (biotinylated); purchased Accelegan Inc
T1 sequence (P01116 1-169 isoform P01116-2 Q61H): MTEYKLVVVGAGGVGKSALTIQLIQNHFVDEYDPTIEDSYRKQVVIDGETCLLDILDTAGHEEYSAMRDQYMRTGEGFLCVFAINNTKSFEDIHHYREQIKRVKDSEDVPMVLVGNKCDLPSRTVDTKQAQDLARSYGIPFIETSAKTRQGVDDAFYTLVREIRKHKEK
Protocol: as §1

KRas G13D = target: T2, KRas G13D (Homo sapiens, UniProt P01116, G13D); assay: KRas binding assay (TR-FRET displacement);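 also: One-hour room temperature incubation before TR-FRET reading, IC50 from a four-parameter curve fit to percent-of-control data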
T2 construct: Biotinylated KRas (corresponding to amino acids 1-169, produced at Accelegan Inc.); biotin (biotinylated); purchased Accelegan Inc
T2 sequence (P01116 1-169 isoform P01116-2 G13D): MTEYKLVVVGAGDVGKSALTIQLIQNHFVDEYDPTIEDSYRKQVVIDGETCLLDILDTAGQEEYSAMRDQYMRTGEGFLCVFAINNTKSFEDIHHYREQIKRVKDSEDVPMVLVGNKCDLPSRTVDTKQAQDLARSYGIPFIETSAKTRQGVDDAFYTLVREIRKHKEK
Protocol: as §1

KRas G12S = KRas G12S (Homo sapiens, UniProt P01116, G12S); assay: biochemical;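 also: TR-FRET displacement binding to KRas, read after one hour incubation at room temperature, IC50 from four-parameter fit of percent of control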
Sequence of KRas G12S (P01116 1-169 isoform P01116-2 G12S): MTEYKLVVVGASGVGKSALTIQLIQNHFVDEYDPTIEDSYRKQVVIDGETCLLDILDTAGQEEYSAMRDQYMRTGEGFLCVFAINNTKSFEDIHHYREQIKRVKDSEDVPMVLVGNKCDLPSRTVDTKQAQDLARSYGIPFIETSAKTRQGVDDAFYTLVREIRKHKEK
Protocol: as §1

KRas G12C = KRas G12C (Homo sapiens, UniProt P01116, G12C); assay: biochemical;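 also: binding to KRas assessed by TR-FRET displacement after one hour incubation at room temperature, potency fitted from percent-of-control values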
Sequence of KRas G12C (P01116 1-169 isoform P01116-2 G12C): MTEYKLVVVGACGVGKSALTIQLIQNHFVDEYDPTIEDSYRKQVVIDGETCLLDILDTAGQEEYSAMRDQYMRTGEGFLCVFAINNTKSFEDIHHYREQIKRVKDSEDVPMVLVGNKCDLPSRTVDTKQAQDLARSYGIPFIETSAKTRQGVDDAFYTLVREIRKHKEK
Protocol: as §1

KRas G12D = KRas G12D (Homo sapiens, UniProt P01116, G12D); assay: biochemical;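 also: TR-FRET displacement binding assay on KRas, read after a one-hour incubation at room temperature, IC50 fitted from percent-of-control values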
Sequence of KRas G12D (P01116 1-169 isoform P01116-2 G12D): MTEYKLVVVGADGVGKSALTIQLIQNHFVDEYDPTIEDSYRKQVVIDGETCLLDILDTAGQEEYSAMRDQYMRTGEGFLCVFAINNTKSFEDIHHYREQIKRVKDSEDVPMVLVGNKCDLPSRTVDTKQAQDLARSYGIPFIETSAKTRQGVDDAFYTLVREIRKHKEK
Protocol: as §1

KRas WT = KRas WT (Homo sapiens, UniProt P01116); assay: biochemical;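 also: binding to KRas read as TR-FRET displacement after a one-hour room-temperature incubation, IC50 derived from percent-of-control values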
Sequence of KRas WT (P01116 1-169 isoform P01116-2): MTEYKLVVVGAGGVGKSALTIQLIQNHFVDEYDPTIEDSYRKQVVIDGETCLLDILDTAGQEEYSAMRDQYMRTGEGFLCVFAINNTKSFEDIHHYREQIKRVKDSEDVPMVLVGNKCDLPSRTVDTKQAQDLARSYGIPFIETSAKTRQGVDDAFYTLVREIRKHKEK
Protocol: as §1

Sequence of KRas G12A (P01116 1-169 isoform P01116-2 G12A): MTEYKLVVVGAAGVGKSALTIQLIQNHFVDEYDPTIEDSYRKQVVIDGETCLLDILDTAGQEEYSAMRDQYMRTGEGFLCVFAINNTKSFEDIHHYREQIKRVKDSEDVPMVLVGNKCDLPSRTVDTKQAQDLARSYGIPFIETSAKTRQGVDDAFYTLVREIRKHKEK

IC50 (KRas G12A) [µM]	IC50 (KRas G12R) [µM]	IC50 (KRas G12V) [µM]	IC50 (KRas Q61H) [nM]	IC50 (KRas G13D) [nM]	IC50 (KRas G12S) [µM]	IC50 (KRas G12C) [µM]	IC50 (KRas G12D) [µM]	IC50 (KRas WT) [µM]	Structure (SMILES)
0.013	0.007	0.008	95	69	0.016	0.01	0.307	0.08	CCc1cccc2cccc(-c3ncc4c(NCc5c[nH]c6ncccc56)nc(OCC56CCCN5CCC6)nc4c3F)c12 [Example 205, N-((1H-pyrrolo[2,3-b]pyridin-3-yl)methyl)-7-(8-ethylnaphthalen-1-yl)-8-fluoro-2-((hexahydro-1H-pyrrolizin-7a-yl)methoxy)pyrido[4,3-d]pyrimidin-4-amine]
2.74	6.27	4.09	5200	2700	3.59	4.41	3.31	3.45	CC1CC(O)CCN(c2nc(OCC34CCCN3CCC4)nc3c(F)c(-c4cccc5cccc(F)c45)ncc23)C1 (stereo not drawn) [Example 116, 1-(8-fluoro-7-(8-fluoronaphthalen-1-yl)-2-((tetrahydro-1H-pyrrolizin-7a(5H)-yl)methoxy)pyrido[4,3-d]pyrimidin-4-yl)-6-methylazepan-4-ol]
0.294	0.455	0.204	1060	1170	0.419	0.591	0.061	0.864	CN(C)C(=O)c1cc2n(n1)CCCN(c1nc(OCC34CCCN3CCC4)nc3c(F)c(-c4cccc5cccc(F)c45)ncc13)C2 [Example 260, 5-(8-fluoro-7-(8-fluoronaphthalen-1-yl)-2-((hexahydro-1H-pyrrolizin-7a-yl)methoxy)pyrido[4,3-d]pyrimidin-4-yl)-N,N-dimethyl-5,6,7,8-tetrahydro-4H-pyrazolo[1,5-a][1,4]diazepine-2-carboxamide]
10.5	18.3	10.8	21900	25800	14.2	9.08	8.36	11.4	OCC1CCCCN(c2nc(OCC34CCCN3CCC4)nc3c(F)c(-c4cccc5cccc(F)c45)ncc23)C1 (stereo not drawn) [Example 130, (1-(8-fluoro-7-(8-fluoronaphthalen-1-yl)-2-((tetrahydro-1H-pyrrolizin-7a(5H)-yl)methoxy)pyrido[4,3-d]pyrimidin-4-yl)azepan-3-yl)methanol]
25.3	28.1	25.9	20700	13300	31	27.5	37.5	36.6	C[C@@H]1C[C@@H](O)CN(c2nc(OCC34CCCN3CCC4)nc3c(F)c(-c4cccc5cccc(F)c45)ncc23)C1 [Example 112, (3R,5R)-1-(8-fluoro-7-(8-fluoronaphthalen-1-yl)-2-((tetrahydro-1H-pyrrolizin-7a(5H)-yl)methoxy)pyrido[4,3-d]pyrimidin-4-yl)-5-methylpiperidin-3-ol]
5.52	4.39	3.92	39000	29100	7.42	4.25	60.4	13.3	Fc1c(-c2cccc3cccc(F)c23)ncc2c(NCc3ccc4nonc4c3)nc(OCC34CCCN3CCC4)nc12 [Example 125, N-(benzo[c][1,2,5]oxadiazol-5-ylmethyl)-8-fluoro-7-(8-fluoronaphthalen-1-yl)-2-((tetrahydro-1H-pyrrolizin-7a(5H)-yl)methoxy)pyrido[4,3-d]pyrimidin-4-amine]
6.75	8.67	6.07	7470	6700	6.31	8.25	10.8	5.57	Fc1c(-c2cccc3cccc(F)c23)ncc2c(N3CCCC4(COC4)C3)nc(OCC34CCCN3CCC4)nc12 [Example 220, 6-(8-fluoro-7-(8-fluoronaphthalen-1-yl)-2-((tetrahydro-1H-pyrrolizin-7a(5H)-yl)methoxy)pyrido[4,3-d]pyrimidin-4-yl)-2-oxa-6-azaspiro[3.5]nonane]
